US12030888B2, “Himastatin derivatives, and processes of preparation thereof, and uses thereof” (priority 2021, dated 2024)
Values after ≈ are worked out from the molar mass of the structure shown. Like-named read-outs stand apart in the source and are kept apart here. Numbered stars: 1 amine (or outer) side, 2 acyl side, 3 side chain; on linkers, the order of the positions; unused ones are H or OH. Square brackets hold non-standard residues; d marks the D form. Peptide text beside a SMILES is read from it. X1 = O=C([C@@H]1C[C@@]2(O)c3ccccc3N[C@H]2N1[*:1])[*:2]; X2 = O=C([C@H]1C[C@]2(O)c3ccccc3N[C@@H]2N1[*:1])[*:2]; X3 = O=C([C@@H]1C[C@H](O)CNN1[*:1])[*:2]; dPiz(5R-OH) = O=C(O)[C@H]1C[C@@H](O)CNN1; Lys(N3) = [N-]=[N+]=NCCCC[C@H](N)C(=O)O; NMeV = CN[C@H](C(=O)O)C(C)C; dHiv = CC(C)[C@@H](O)C(=O)O; Hiv = CC(C)[C@H](O)C(=O)O

Columns and labels:
[1] = tested on: Methicillin-Sensitive S. aureus (Newman); format: cell-based, Staphylococcus aureus; conditions: Newman
Procedure: (§1) Bacillus subtilis subsp. spizizenii (ATCC 6633) and Streptomyces himastatinicus (ATCC 53653) were obtained from the American Type Culture Collection (ATCC). Methicillin-resistant and methicillin-susceptible Staphylococcus aureus (Newman), and vancomycin-resistant (V583) and vancomycin-susceptible (T7) Enterococcus faecalis were obtained from the lab of Dr. Roby P. Bhattacharyya (Massachusetts General Hospital).^6 B. subtilis was grown in brain-heart infusion (BHI) medium at 37° C., S. himastatinicus was grown in tryptone-yeast extract broth (ISP medium 2) at 28° C., E. faecalis was grown in Todd-Hewitt broth, and all other organisms were grown in lysogeny broth (LB) medium at 37° C.
(§2) Minimum inhibitory concentration (MIC) was determined using the broth microdilution method. 20-fold stocks of compound in DMSO were diluted 10-fold in MHB medium and 100 μL of each were added to the first well of a 96-well plate. 50 μL of the first well was then serially diluted through 50 μL MHB medium in wells 2-11. To prepare the bacterial culture, an overnight culture was diluted in MHB until the turbidity matched that of McFarland standard 0.5. Then, the culture was diluted 1:100 and added to wells 1-11, resulting in 2-fold dilutions of antibiotic beginning at 64 μg/mL and a final inoculum of 5×10^5 cfu/mL. 100 μL of MHB medium was added to well 12 as a sterility control, and a row containing no antibiotic was used as a growth control. The plate was incubated at the organism's respective growth temperature overnight (B. subtilis) or 72 h (S. himastatinicus) and the MIC was determined using OD600.
(§3) Minimum inhibitory concentration (MIC) was determined using the broth microdilution method.^7 20-fold (1.28 mg/mL) stocks of compound in dimethylsulfoxide, stored as frozen (−80° C.) 30-μL aliquots, were diluted 10-fold in Mueller Hinton broth (MHB) and a 100-μL sample of each was added to the first well of a 96-well plate. A 50-μL sample of the first well was then serially diluted two-fold through 50-μL NMB medium in wells 2-11. A bacterial culture was prepared from a frozen (−80° C.) stock in the organism's respective growth medium and grown overnight. The culture was then diluted in MHB until the turbidity matched that of McFarland standard 0.5 by measuring the optical density at 600 nm (1×10^8 cfu/mL). Then, the culture was diluted 1:100 and a 50-μL aliquot was added to wells 1-11, resulting in 2-fold dilutions of antibiotic from 64 μg/mL down to 0.0625 μg/mL and a final inoculum of 5×10^5 cfu/mL. A 100-μL aliquot of MHB medium was added to well 12 as a sterility control, and a row containing no antibiotic was used as a growth control. The plate was incubated at the organism's respective growth temperature overnight or 72 h (S. himastatinicus). The MIC was determined by observing the well density by eye and, with the exception of S. himastatinicus which grows in solid colonies in media, was confirmed by measuring the optical density of each well at 600 nm. At least two assays were conducted for each organism on identical lots of compound. No degradation of compound stocks in dimethylsulfoxide was observed by LC-MS analysis after being subjected to multiple freeze-thaw cycles.

Gram-positive bacteria = format: cell-based; conditions: relative to (−)-himastatin (1) where a derivative
Procedure: as §1, §2, §3

[2] = tested on: Streptomyces himastatinicus (ATCC 53653); format: cell-based; conditions: ATCC 53653, 72 h
Procedure: as §1, §2, §3

[3] = tested on: Bacillus subtilis (ATCC 6633); format: cell-based; conditions: for MIC (μg/mL) B. subtilis: ATCC 6633; for MIC in Bacillus subtilis: text and figure legend
Procedure: as §1, §2, §3

[4] = tested on: Methicillin-Resistant Staphylococcus aureus; format: cell-based; conditions: Methicillin-Resistant
Procedure: as §1, §2, §3

[5] = tested on: Vancomycin-Resistant Enterococcus faecalis (V583); format: cell-based; conditions: Vancomycin-Resistant (V583)
Procedure: as §1, §2, §3

[6] = tested on: Vancomycin-Sensitive E. faecalis (T7); format: cell-based, Enterococcus faecalis; conditions: Vancomycin-Sensitive (T7)
Procedure: as §1, §2, §3

Compound	MIC (μg/mL) MSSA [1]	antibiotic activity (in words) (Gram-positive bacteria)	MIC (μg/mL) S. himastatinicus [2]	MIC (μg/mL) B. subtilis [3]	MIC (μg/mL) MRSA [4]	MIC (μg/mL) VRE faecalis [5]	MIC (μg/mL) VSE faecalis [6]	MIC in Bacillus subtilis [3]	MIC in Bacillus subtilis ([3]; listed as TAMRA-himastatin)	antibiotic activity (in words) (Gram-positive bacteria; listed as (−)-15)	antibiotic activity (in words) (Gram-positive bacteria; listed as (−)-19)
CC(C)C[C@@H]1NC(=O)[C@H]2C[C@@H](O)CNN2C(=O)[C@H](C(C)C)OC(=O)[C@@H](C(C)C)NC(=O)[C@@H]2C[C@@]3(O)c4ccccc4N[C@H]3N2C(=O)[C@@H]([C@H](C)O)NC1=O [(+)-6, Himastatin Monomer, reference compound] (cyclo([Hiv][dPiz(5R-OH)]L[dT][X1][dV]))	>64 µg/mL	inactive	>64 µg/mL	>64 µg/mL	>64 µg/mL	>64 µg/mL	>64 µg/mL				
CC(C)C[C@@H]1NC(=O)[C@H]2C[C@@H](O)CNN2C(=O)[C@H](C(C)C)NC(=O)[C@@H](C(C)C)NC(=O)[C@@H]2C[C@@]3(O)c4ccccc4N[C@H]3N2C(=O)[C@@H]([C@H](C)O)NC1=O [(+)-25, Cyclic Hexapeptide] (cyclo(L[dT][X1][dV]V[dPiz(5R-OH)]))	>64 µg/mL		>64 µg/mL	>64 µg/mL	>64 µg/mL	>64 µg/mL	>64 µg/mL				
CC(C)C[C@@H]1NC(=O)[C@H]2C[C@@H](O)CNN2C(=O)[C@H](C(C)C)N(C)C(=O)[C@@H](C(C)C)NC(=O)[C@@H]2C[C@@]3(O)c4ccccc4N[C@H]3N2C(=O)[C@@H]([C@H](C)O)NC1=O [(+)-27, N-Methyl Cyclic Hexapeptide] (cyclo(L[dT][X1][dV][NMeV][dPiz(5R-OH)]))	>64 µg/mL		>64 µg/mL	>64 µg/mL	>64 µg/mL	>64 µg/mL	>64 µg/mL				
CC(C)C[C@@H]1NC(=O)[C@H]2CCCN2C(=O)[C@H](C(C)C)OC(=O)[C@@H](C(C)C)NC(=O)[C@@H]2C[C@@]3(O)c4ccccc4N[C@H]3N2C(=O)[C@@H]([C@H](C)O)NC1=O [(+)-29, Proline Cyclic Depsihexapeptide] (cyclo([Hiv][dP]L[dT][X1][dV]))	>64 µg/mL		>64 µg/mL	>64 µg/mL	>64 µg/mL	>64 µg/mL	>64 µg/mL				
CC(C)[C@@H]1OC(=O)[C@@H](C(C)C)NC(=O)[C@@H]2C[C@@]3(O)c4ccccc4N[C@H]3N2C(=O)[C@@H]([C@H](C)O)NC(=O)[C@H](CCCCN=[N+]=[N-])NC(=O)[C@H]2C[C@@H](O)CNN2C1=O [(+)-31, Azido Cyclic Depsihexapeptide] (cyclo([Hiv][dPiz(5R-OH)][Lys(N3)][dT][X1][dV]))	>64 µg/mL		>64 µg/mL	>64 µg/mL	>64 µg/mL	>64 µg/mL	>64 µg/mL				
CC(C)C[C@H]1NC(=O)[C@@H]2C[C@H](O)CNN2C(=O)[C@@H](C(C)C)OC(=O)[C@H](C(C)C)NC(=O)[C@H]2C[C@]3(O)c4ccccc4N[C@@H]3N2C(=O)[C@H]([C@@H](C)O)NC1=O [(−)-6, ent-himastatin monomer] (cyclo([dL]T[X2]V[dHiv][X3]))	>64 µg/mL		8 µg/mL (≈ 10.8 µM)	>64 µg/mL	>64 µg/mL	>64 µg/mL	>64 µg/mL				
CC(C)C[C@@H]1NC(=O)[C@H]2C[C@@H](O)CNN2C(=O)[C@H](C(C)C)OC(=O)[C@@H](C(C)C)NC(=O)[C@@H]2C[C@@]3(O)c4cc(-c5ccc6c(c5)[C@]5(O)C[C@H]7C(=O)N[C@H](C(C)C)C(=O)O[C@@H](C(C)C)C(=O)N8NC[C@H](O)C[C@@H]8C(=O)N[C@@H](CCCCNC(=O)c8ccc9c(c8)C(=O)OC98c9ccc(N(C)C)cc9Oc9cc(N(C)C)ccc98)C(=O)N[C@H]([C@H](C)O)C(=O)N7[C@@H]5N6)ccc4N[C@H]3N2C(=O)[C@@H]([C@H](C)O)NC1=O [(−)-25, TAMRA Himastatin Heterodimer]								6 µg/mL (≈ 3.14 µM)	~8 µg/mL (≈ 4.18 µM)		
CC(C)C[C@@H]1NC(=O)[C@H]2C[C@@H](O)CNN2C(=O)[C@H](C(C)C)NC(=O)[C@@H](C(C)C)NC(=O)[C@@H]2C[C@@]3(O)c4cc(-c5ccc6c(c5)[C@]5(O)C[C@H]7C(=O)N[C@H](C(C)C)C(=O)N[C@@H](C(C)C)C(=O)N8NC[C@H](O)C[C@@H]8C(=O)N[C@@H](CC(C)C)C(=O)N[C@H]([C@H](C)O)C(=O)N7[C@@H]5N6)ccc4N[C@H]3N2C(=O)[C@@H]([C@H](C)O)NC1=O [(−)-26, Himastatin Lactam Derivative]	16 µg/mL (≈ 10.8 µM)	modest reduction in antibiotic activity	>64 µg/mL	8 µg/mL (≈ 5.39 µM)	32 µg/mL (≈ 21.6 µM)	32 µg/mL (≈ 21.6 µM)	16 µg/mL (≈ 10.8 µM)			decreasing antibiotic activity	
CC(C)C[C@@H]1NC(=O)[C@H]2C[C@@H](O)CNN2C(=O)[C@H](C(C)C)N(C)C(=O)[C@@H](C(C)C)NC(=O)[C@@H]2C[C@@]3(O)c4cc(-c5ccc6c(c5)[C@]5(O)C[C@H]7C(=O)N[C@H](C(C)C)C(=O)N(C)[C@@H](C(C)C)C(=O)N8NC[C@H](O)C[C@@H]8C(=O)N[C@@H](CC(C)C)C(=O)N[C@H]([C@H](C)O)C(=O)N7[C@@H]5N6)ccc4N[C@H]3N2C(=O)[C@@H]([C@H](C)O)NC1=O [(−)-28, Himastatin N-Methyl Lactam Derivative]	>64 µg/mL	decreasing antibiotic activity	>64 µg/mL	>64 µg/mL	>64 µg/mL	>64 µg/mL	>64 µg/mL				
CC(C)C[C@@H]1NC(=O)[C@H]2CCCN2C(=O)[C@H](C(C)C)OC(=O)[C@@H](C(C)C)NC(=O)[C@@H]2C[C@@]3(O)c4cc(-c5ccc6c(c5)[C@]5(O)C[C@H]7C(=O)N[C@H](C(C)C)C(=O)O[C@@H](C(C)C)C(=O)N8CCC[C@@H]8C(=O)N[C@@H](CC(C)C)C(=O)N[C@H]([C@H](C)O)C(=O)N7[C@@H]5N6)ccc4N[C@H]3N2C(=O)[C@@H]([C@H](C)O)NC1=O [(−)-30, Himastatin Proline Derivative]	>64 µg/mL	complete abolishment of antibiotic activity	>64 µg/mL	>64 µg/mL	>64 µg/mL	>64 µg/mL	>64 µg/mL				antibiotic activity was completely abolished
